According to patent US6855519B2, “Methods for enhancing the production of interferon in cell culture” (The Regents of the University of California, priority 1995, dated 2005):

How the values were obtained:
Assay type in all cases: cell-based
U937-neo cells = assay: Interferon induction in control U937-neo cells (IFN assay of culture supernatants); conditions: inducer 10 μg/ml for 20 hr, either with or without 10 nM PMA priming
Protocol: (§1) FIG. 2. Interferon induction in U937-PKR+ cells and control U937-neo cells. U937-PKR+ cells and U937-neo cells (0.5×10^6/ml) were cultured in RPMI 1640 medium, supplemented with 5% fetal bovine serum. The cells were pretreated (“primed”) with or without 10 nM PMA for 20 hrs followed by induction with 10 μg/ml poly r(I):poly r(C) or with 0.1 TCID50/cell EMCV for 20 hrs. Twenty-four hours after induction, culture supernatants were collected and assayed for IFN-α. The open bars indicate U937-neo cells, the hatched bars indicate U937-PKR+ cells. The experimental groups indicate different treatments: 1-no treatment; 2-poly r(I):poly r(C) induction alone; 3-EMCV induction alone; 4-PMA priming alone; 5-PMA priming and poly r(I):poly r(C) induction; 6-PMA priming and EMCV induction.
The levels of IFN-α in the preparations can be determined by titrating for antiviral activity on L929 (murine fibroblast) cells against National Institute of Allergy and Infectious Diseases reference standard G-023-901-527 (Lau et al. J. Clin. Invest. 82:1415-1421 1988). In this technique, 5×10^4 L929 cells are seeded into each well of 96-well microtiter plates and then incubated with two-fold serial dilutions of culture supernatants for 16 hr. […] Virus-induced cytopathic effects were assessed by microscopic examination and by staining cells with 0.1% crystal violet in 5% ethanol solutions. […]

U937-PKR+ cells [1] = assay: Trypan blue exclusion viability assay following induction
Description: Following induction by poly r(I):poly r(C), the U937-PKR+ cells were examined for viability using a trypan blue exclusion assay. […] Thus, the U937-PKR+ cells can be recycled for continuous production of IFN.

U937-PKR+ cells [2] = assay: Interferon induction in U937-PKR+ cells (IFN assay of culture supernatants)
Protocol: as §1
The levels of IFN-α in the preparations can be determined by titrating for antiviral activity on L929 (murine fibroblast) cells against National Institute of Allergy and Infectious Diseases reference standard G-023-901-527 (Lau et al. J. Clin. Invest. 82:1415-1421 1988). In this technique, 5×10^4 L929 cells are seeded into each well of 96-well microtiter plates and then incubated with two-fold serial dilutions of culture supernatants for 16 hr. The cells are subsequently challenged with EMCV or Sendai virus (0.1 or 0.01 TCID per cell). Virus-induced cytopathic effects were assessed by microscopic examination and by staining cells with 0.1% crystal violet in 5% ethanol solutions. The IFN titer is defined as the reciprocal of the highest dilution of culture supernatants capable of protecting 50% of the cells from viral-induced cytopathic effects.
U937-PKR+ cells and U937-neo cells were cultured in RPMI 1640 medium, supplemented with fetal bovine serum. The cells were pretreated with or without phorbol myristate acetate (PMA) (10 nM) for 20 hr and with or without subsequent stimulation by poly r(I):r(C), 10 ug/ml, for 20 hr. Twenty-four hr after the stimulation with poly r(I):r(C), culture supernatants were collected for IFN assays.

With poly r(I):poly r(C) the IFN-α synthesis (U937-neo cells) was “minimal synthesis of IFN-α”, the viable cells (U937-PKR+ cells [1]) was “more than 95%” and the IFN production (U937-PKR+ cells [2]; inducer 10 μg/ml for 20 hr, with or without 10 nM PMA priming) was “increased IFN production”. The IFN level (U937-PKR+ cells [2]; with 10 nM PMA priming 20 hr, then induction) was 4000 U/ml.
For `CCCCCCCCCCCCCC(=O)O[C@@H]1[C@@H](C)[C@@]2(O)[C@@H](C=C(CO)C[C@]3(O)C(=O)C(C)=C[C@@H]23)[C@@H]2C(C)(C)[C@]12OC(C)=O` [PMA, phorbol myristate acetate], the IFN production (U937-PKR+ cells [2]; PMA priming alone, no EMCV or poly r(I):poly r(C) inducer, compared with U937-neo cells) was “higher levels of IFNs than did U937-neo cells”.
